Measured values taken from ChEMBL document CHEMBL5252512, “Recent Progress in the Development of HIV-1 Protease Inhibitors for the Treatment of HIV/AIDS” (J Med Chem, 2016).

Experiments:
[1] = AUC in rat at 10 mg/kg, po; assay type: ADME, organism-based; set-up: dose 10 mg/kg, route po; conditions: in vivo
[2] = Half life in rat at 1 mg/kg, iv; assay type: ADME, organism-based; conditions: in vivo
[3] = Clearance in rat at 2 mg/kg, iv; assay type: ADME, organism-based; conditions: in vivo
[4] = Clearance in dog at 1 mg/kg, iv; assay type: ADME, organism-based, Canis lupus familiaris; conditions: in vivo
[5] = Half life in dog at 1 mg/kg, iv; assay type: ADME, organism-based, Canis lupus familiaris; conditions: in vivo
[6] = target: T1, Human immunodeficiency virus type 1 protease (Human immunodeficiency virus 1, UniProt Q72874); test: Binding affinity to HIV1 protease assessed as inhibition constant
[7] = tested on: Human immunodeficiency virus 1; test: Antiviral activity against wild type HIV1 ERS104pre infected in human PBMC cells assessed as inhibition of virus-induced cytopathic effect measured after 7 days by MTT assay; assay type: functional, organism-based; conditions: Human immunodeficiency virus 1, ERS104pre, 168 h
[8] = tested on: Human immunodeficiency virus 1; test: Antiviral activity against multidrug-resistant HIV1-TM infected in phytohemagglutinin-activated human PBMC cells assessed as inhibition of virus-induced cytopathic effect measured after 7 days by MTT assay; assay type: functional, organism-based; conditions: Human immunodeficiency virus 1, TM, 168 h
[9] = tested on: Human immunodeficiency virus 1; test: Antiviral activity against multidrug-resistant HIV1-MM infected in phytohemagglutinin-activated human PBMC cells assessed as inhibition of virus-induced cytopathic effect measured after 7 days by MTT assay; assay type: functional, organism-based; conditions: Human immunodeficiency virus 1, MM, 168 h
[10] = tested on: Human immunodeficiency virus 1; test: Antiviral activity against multidrug-resistant HIV1-JSL infected in phytohemagglutinin-activated human PBMC cells assessed as inhibition of virus-induced cytopathic effect measured after 7 days by MTT assay; assay type: functional, organism-based; conditions: Human immunodeficiency virus 1, JSL, 168 h
[11] = tested on: Human immunodeficiency virus 1; test: Antiviral activity against multidrug-resistant HIV1-B infected in phytohemagglutinin-activated human PBMC cells assessed as inhibition of virus-induced cytopathic effect measured after 7 days by MTT assay; assay type: functional, organism-based; conditions: Human immunodeficiency virus 1, B, 168 h
[12] = tested on: Human immunodeficiency virus 1; test: Antiviral activity against multidrug-resistant HIV1-C infected in phytohemagglutinin-activated human PBMC cells assessed as inhibition of virus-induced cytopathic effect measured after 7 days by MTT assay; assay type: functional, organism-based; conditions: Human immunodeficiency virus 1, C, 168 h
[13] = tested on: Human immunodeficiency virus 1; test: Antiviral activity against multidrug-resistant HIV1-G infected in phytohemagglutinin-activated human PBMC cells assessed as inhibition of virus-induced cytopathic effect measured after 7 days by MTT assay; assay type: functional, organism-based; conditions: Human immunodeficiency virus 1, G, 168 h
[14] = tested on: Human immunodeficiency virus 1; test: Ratio of EC50 for antiviral activity against HIV1-TM to EC50 for antiviral activity against wild type HIV1 ERS104pre; assay type: functional
[15] = tested on: Human immunodeficiency virus 1; test: Ratio of EC50 for antiviral activity against HIV1-MM to EC50 for antiviral activity against wild type HIV1 ERS104pre; assay type: functional
[16] = tested on: Human immunodeficiency virus 1; test: Ratio of EC50 for antiviral activity against HIV1-JSL to EC50 for antiviral activity against wild type HIV1 ERS104pre; assay type: functional
[17] = tested on: Human immunodeficiency virus 1; test: Ratio of EC50 for antiviral activity against HIV1-B to EC50 for antiviral activity against wild type HIV1 ERS104pre; assay type: functional
[18] = tested on: Human immunodeficiency virus 1; test: Ratio of EC50 for antiviral activity against HIV1-C to EC50 for antiviral activity against wild type HIV1 ERS104pre; assay type: functional
[19] = tested on: Human immunodeficiency virus 1; test: Ratio of EC50 for antiviral activity against HIV1-G to EC50 for antiviral activity against wild type HIV1 ERS104pre; assay type: functional
[20] = tested on: Human immunodeficiency virus 1; test: Antiviral activity against darunavir-resistant HIV1 10P infected in phytohemagglutinin-activated human PBMC cells assessed as inhibition of virus-induced cytopathic effect measured after 7 days by MTT assay; assay type: functional, organism-based; conditions: Human immunodeficiency virus 1, 10P, 168 h
[21] = tested on: Human immunodeficiency virus 1; test: Antiviral activity against darunavir-resistant HIV1 20P infected in phytohemagglutinin-activated human PBMC cells assessed as inhibition of virus-induced cytopathic effect measured after 7 days by MTT assay; assay type: functional, organism-based; conditions: Human immunodeficiency virus 1, 20P, 168 h
[22] = tested on: Human immunodeficiency virus 1; test: Ratio of EC50 for antiviral activity against darunavir-resistant HIV1 10P to EC50 for antiviral activity against wild type HIV1 ERS104pre; assay type: functional
[23] = tested on: Human immunodeficiency virus 1; test: Ratio of EC50 for antiviral activity against darunavir-resistant HIV1 20P to EC50 for antiviral activity against wild type HIV1 ERS104pre; assay type: functional
[24] = target: T1, Human immunodeficiency virus type 1 protease; test: Binding affinity to wild-type HIV1 protease expressed in Escherichia coli BL21(DE3) assessed as inhibition constant using (2-aminobenzoyl)Thr-Ile-Nle-(p-nitro)Phe-Gln-Arg peptide as substrate preincubated for 15 mins followed by substrate addition by fluorimeter analysis
[25] = tested on: Human immunodeficiency virus 1; test: Antiviral activity against wild type HIV1 r13205 infected in human MT4 cells expressing LTR and EGFP assessed as inhibition of virus-induced cytopathic effect by fluorescence microscopic analysis; assay type: functional, organism-based; conditions: Human immunodeficiency virus 1, r13205, MT4
[26] = tested on: Human immunodeficiency virus 1; test: Antiviral activity against HIV1 T20760 infected in human MT4 cells expressing LTR and EGFP assessed as inhibition of virus-induced cytopathic effect by fluorescence microscopic analysis; assay type: functional, organism-based; conditions: Human immunodeficiency virus 1, T20760, MT4
[27] = tested on: Human immunodeficiency virus 1; test: Antiviral activity against HIV1 T21055 infected in human MT4 cells expressing LTR and EGFP assessed as inhibition of virus-induced cytopathic effect by fluorescence microscopic analysis; assay type: functional, organism-based; conditions: Human immunodeficiency virus 1, T21055, MT4
[28] = tested on: Human immunodeficiency virus 1; test: Antiviral activity against HIV1 T21217 infected in human MT4 cells expressing LTR and EGFP assessed as inhibition of virus-induced cytopathic effect by fluorescence microscopic analysis; assay type: functional, organism-based; conditions: Human immunodeficiency virus 1, T21217, MT4
[29] = tested on: Human immunodeficiency virus 1; test: Antiviral activity against HIV1 T13436 infected in human MT4 cells expressing LTR and EGFP assessed as inhibition of virus-induced cytopathic effect by fluorescence microscopic analysis; assay type: functional, organism-based; conditions: Human immunodeficiency virus 1, T13436, MT4
[30] = tested on: Human immunodeficiency virus 1; test: Antiviral activity against HIV1 T13572 infected in human MT4 cells expressing LTR and EGFP assessed as inhibition of virus-induced cytopathic effect by fluorescence microscopic analysis; assay type: functional, organism-based; conditions: Human immunodeficiency virus 1, T13572, MT4
[31] = tested on: Human immunodeficiency virus 1; test: Antiviral activity against HIV1 T13632 infected in human MT4 cells expressing LTR and EGFP assessed as inhibition of virus-induced cytopathic effect by fluorescence microscopic analysis; assay type: functional, organism-based; conditions: Human immunodeficiency virus 1, T13632, MT4
[32] = tested on: Human immunodeficiency virus 1; test: Antiviral activity against HIV1 T13717 infected in human MT4 cells expressing LTR and EGFP assessed as inhibition of virus-induced cytopathic effect by fluorescence microscopic analysis; assay type: functional, organism-based; conditions: Human immunodeficiency virus 1, T13717, MT4
[33] = tested on: Human immunodeficiency virus 1; test: Ratio of EC50 for antiviral activity against HIV1-T20760 to EC50 for antiviral activity against wild type HIV1 r13205; assay type: functional
[34] = tested on: Human immunodeficiency virus 1; test: Ratio of EC50 for antiviral activity against HIV1-T21055 to EC50 for antiviral activity against wild type HIV1 r13205; assay type: functional
[35] = tested on: Human immunodeficiency virus 1; test: Ratio of EC50 for antiviral activity against HIV1-T21217 to EC50 for antiviral activity against wild type HIV1 r13205; assay type: functional
[36] = tested on: Human immunodeficiency virus 1; test: Ratio of EC50 for antiviral activity against HIV1-T13436 to EC50 for antiviral activity against wild type HIV1 r13205; assay type: functional
[37] = tested on: Human immunodeficiency virus 1; test: Ratio of EC50 for antiviral activity against HIV1-T13572 to EC50 for antiviral activity against wild type HIV1 r13205; assay type: functional
[38] = tested on: Human immunodeficiency virus 1; test: Ratio of EC50 for antiviral activity against HIV1-T13632 to EC50 for antiviral activity against wild type HIV1 r13205; assay type: functional
[39] = tested on: Human immunodeficiency virus 1; test: Ratio of EC50 for antiviral activity against HIV1-T13717 to EC50 for antiviral activity against wild type HIV1 r13205; assay type: functional
[40] = Lipophilicity, logP of the compound in Octanol/water by shake-flask method; assay type: physicochemical
[41] = Lipophilicity, logD of the compound in Octanol/buffer by shake-flask method; assay type: physicochemical
[42] = tested on: Human immunodeficiency virus 1; test: Antiviral activity against HIV1 LAI infected in human MT2 cells assessed as inhibition of virus-induced cytopathic effect by MTT assay; assay type: functional, organism-based; conditions: Human immunodeficiency virus 1, LAI
[43] = Cytotoxicity against human MT2 cells assessed as reduction in cell viability by MTT assay; assay type: toxicity, cell-based
[44] = Selectivity index, ratio of CC50 for human MT2 cells to IC50 for antiviral activity against HIV1 LAI; assay type: toxicity; conditions: read-out: Ratio CC50/EC50
[45] = Apparent permeability in rat astrocytes/rat pericytes/monkey endothelial cells triple cell co-culture system incubated for 30 mins by spectrophotometric analysis; assay type: ADME, cell-based
[46] = target: T1, Human immunodeficiency virus type 1 protease; test: Binding affinity to HIV1 recombinant wild type protease expressed in Escherichia coli BL21(DE3) assessed as inhibition constant

Compound | Ki [6] | EC50 [7] | EC50 [8] | EC50 [9] | EC50 [10] | EC50 [11] | EC50 [12] | EC50 [13] | Ratio EC50 [14] | Ratio EC50 [15] | Ratio EC50 [16] | Ratio EC50 [17] | Ratio EC50 [18] | Ratio EC50 [19] | EC50 [20] | EC50 [21] | Ratio EC50 [22] | Ratio EC50 [23] | logP [40] | logD [41] | other results
CC[C@@H](CCC[C@@H](CO)N(CCC(C)C)S(=O)(=O)c1ccc(N)cc1)NC(=O)[C@@H](NC(=O)OC)C(c1ccccc1)c1ccccc1 |  |  |  |  |  |  |  |  |  |  |  |  |  |  |  |  |  |  |  |  | AUC [1]: 1.17 µM·h; half-life [2]: 2.13 h; clearance [3]: 48.5 mL/min/kg; clearance [4]: 10.1 mL/min/kg; half-life [5]: 7.4 h
COc1ccc(S(=O)(=O)N(CC(C)C)C[C@@H](O)[C@H](Cc2ccccc2)NC(=O)O[C@H]2CO[C@H]3O[C@@H]4OCC[C@@H]4[C@H]32)cc1 | 0.0059 nM | 0.6 nM | 2.1 nM | 2.5 nM | 2.5 nM | 3.4 nM | 0.8 nM | 2.6 nM | 4 | 4 | 4 | 6 | 1 | 4 | 5.6 nM | 30 nM | 9 | 50 |  |  | 
COc1ccc(S(=O)(=O)N(CC(C)C)C[C@@H](O)[C@H](Cc2ccc(OCP(=O)(O)O)cc2)NC(=O)O[C@H]2CO[C@H]3OCC[C@H]32)cc1 |  |  |  |  |  |  |  |  |  |  |  |  |  |  |  |  |  |  |  |  | Ki [24]: 0.0133 nM
CC(C)CN(C[C@@H](O)[C@H](Cc1ccccc1)NC(=O)O[C@H]1CO[C@H]2OCC[C@H]21)S(=O)(=O)c1ccc(N)cc1 |  | 3.8 nM | 4.3 nM | 10 nM | > 25 nM | 21 nM | 5 nM | 7 nM | 1 | 3 | 6 | 7 | 2 | 2 | 43.4 nM | 255 nM | 11 | 64 | -0.63 | -1.03 | EC50 [25]: 22 nM; EC50 [26]: 39 nM; EC50 [27]: 122 nM; EC50 [28]: 84 nM; EC50 [29]: 49 nM; EC50 [30]: 234 nM; EC50 [31]: 624 nM; EC50 [32]: 670 nM; Ratio EC50 [33]: 1.8; Ratio EC50 [34]: 5.5; Ratio EC50 [35]: 3.8; Ratio EC50 [36]: 2.2; Ratio EC50 [37]: 11; Ratio EC50 [38]: 28; Ratio EC50 [39]: 30
CC(C)CN(C[C@@H](O)[C@H](Cc1ccccc1)NC(=O)O[C@H]1CO[C@H]2OCC(F)(F)[C@H]21)S(=O)(=O)c1ccc(N)cc1 | 0.0058 nM | 2.7 nM | 4 nM | 3 nM | 20 nM | 11 nM | 2 nM | 4 nM | 2 | 1 | 7 | 3 | 1 | 2 |  |  |  |  | -0.83 | -1.01 | EC50 [42]: 3 nM; CC50 [43]: 37000 nM; selectivity ratio [44]: 12300; Papp at 0.5 h [45]: 47.8 ×10⁻⁶ cm/s
CC(C)CN(C[C@@H](O)[C@H](Cc1ccccc1)NC(=O)O[C@H]1CO[C@H]2OCC[C@H]21)S(=O)(=O)c1ccc(C(N)=O)cc1 |  |  |  |  |  |  |  |  |  |  |  |  |  |  |  |  |  |  |  |  | Ki [46]: 0.0089 nM; EC50 [42]: 93 nM
